Laboratory results taken from patent US20110178064A1, “SPIRO CONDENSED […] DERIVATIVES FOR USE AS ANTIBACTERIAL” (A[…]&D, priority 2007, published 2011).

The compounds below were run against Escherichia coli DNA gyrase A/B tetramer (Escherichia coli, UniProt P0AES4+P0AES6) (assay: DNA gyrase supercoiling activity fluorescence polarisation assay). Settings: not given.
Format: biochemical
Outline: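 Gyrase supercoiling reactions quenched with 40 nM 5′-BODIPY-FL oligodeoxynucleotide triplex probe in pH 3.5 NaCl/sodium acetate buffer; fluorescence anisotropy read after 60 min (485/535 nm).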

Chain of Escherichia coli DNA gyrase A/B tetramer (P0AES4 whole entry, one chain of several): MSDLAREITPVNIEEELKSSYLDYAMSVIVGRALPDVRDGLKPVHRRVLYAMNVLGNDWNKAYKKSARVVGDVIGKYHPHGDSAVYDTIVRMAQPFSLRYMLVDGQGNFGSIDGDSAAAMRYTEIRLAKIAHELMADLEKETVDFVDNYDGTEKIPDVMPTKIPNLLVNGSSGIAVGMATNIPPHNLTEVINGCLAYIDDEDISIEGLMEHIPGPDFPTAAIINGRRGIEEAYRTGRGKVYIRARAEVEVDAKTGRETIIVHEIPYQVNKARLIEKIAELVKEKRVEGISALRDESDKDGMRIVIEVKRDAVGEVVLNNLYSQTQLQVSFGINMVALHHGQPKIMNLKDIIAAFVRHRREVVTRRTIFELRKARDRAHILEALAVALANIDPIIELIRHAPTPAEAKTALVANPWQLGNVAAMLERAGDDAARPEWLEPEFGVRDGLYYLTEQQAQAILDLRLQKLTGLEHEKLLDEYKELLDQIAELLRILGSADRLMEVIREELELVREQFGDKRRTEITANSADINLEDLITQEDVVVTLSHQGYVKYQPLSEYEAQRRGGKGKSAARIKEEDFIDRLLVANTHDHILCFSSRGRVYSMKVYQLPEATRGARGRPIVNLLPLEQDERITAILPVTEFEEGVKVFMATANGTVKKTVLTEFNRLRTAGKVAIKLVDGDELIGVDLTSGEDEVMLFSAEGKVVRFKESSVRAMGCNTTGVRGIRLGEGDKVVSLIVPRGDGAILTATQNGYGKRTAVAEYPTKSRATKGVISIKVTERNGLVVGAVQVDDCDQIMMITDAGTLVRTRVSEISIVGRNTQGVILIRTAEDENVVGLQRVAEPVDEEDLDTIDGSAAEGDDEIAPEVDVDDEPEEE

| Structure (SMILES) | IC50 |
| --- | --- |
| C[C@@H]1CN2c3cnc(-c4cccs4)cc3CC3(C(=O)NC(=O)NC3=O)[C@H]2[C@H](C)O1 (relative stereo) [Example 116, (6aS,7S,9R)-rel-7,9-dimethyl-3-(thiophen-2-yl)-6a,7,9,10-tetrahydro-1′H,5H-spiro[[1,4]oxazino[4,3-a][1,7]naphthyridine-6,5′-pyrimidine]-2′,4′,6′(3′H)-trione] | 33 µM |
| C[C@@H]1CN2c3cnc(-c4ccn[nH]4)cc3CC3(C(=O)NC(=O)NC3=O)[C@H]2[C@H](C)O1 (relative stereo) [Example 118, (6aS,7S,9R)-rel-7,9-Dimethyl-3-(1H-pyrazol-5-yl)-6a,7,9,10-tetrahydro-2′H,5H-spiro[1,4-oxazino[4,3-a][1,7]naphthyridine-6,5′-pyrimidine]-2′,4′,6′(1′H,3′H)-trione] | 19 µM |
| C[C@H]1CN2c3ncc(-c4nnn(C)n4)cc3CC3(C(=O)NC(=O)NC3=O)[C@@H]2[C@@H](C)O1 (relative stereo) [Example 120(a), (6aR,7R,9S)-rel-7,9-Dimethyl-3-(2-methyl-2H-tetrazol-5-yl)-6a,7,9,10-tetrahydro-2′H,5H-spiro[1,4-oxazino[4,3-a][1,8]naphthyridine-6,5′-pyrimidine]-2′,4′,6′(1′H,3′H)-trione] | 12 µM |
| C[C@H]1CN2c3ncc(-c4nnnn4C)cc3CC3(C(=O)NC(=O)NC3=O)[C@@H]2[C@@H](C)O1 (relative stereo) [Example 120(b), (6aR,7R,9S)-rel-7,9-Dimethyl-3-(1-methyl-1H-tetrazol-5-yl)-6a,7,9,10-tetrahydro-2′H,5H-spiro[1,4-oxazino[4,3-a][1,8]naphthyridine-6,5′-pyrimidine]-2′,4′,6′(1′H,3′H)-trione] | 14 µM |
| C[C@@H]1CN2c3ncc(C(=N)NO)cc3CC3(C(=O)NC(=O)NC3=O)[C@H]2[C@H](C)O1 (relative stereo) [Example 121, (6aS,7S,9R)-rel-N-Hydroxy-7,9-dimethyl-2′,4′,6′-trioxo-1′,3′,4′,6′,6a,7,9,10-octahydro-2′H,5H-spiro[1,4-oxazino[4,3-a][1,8]naphthyridine-6,5′-pyrimidine]-3-carboximidamide] | 9 µM |
| Cc1nc(-c2cnc3c(c2)CC2(C(=O)NC(=O)NC2=O)[C@H]2[C@H](C)O[C@H](C)CN32)no1 (relative stereo) [Example 122, (6aS,7S,9R)-rel-7,9-dimethyl-3-(5-methyl-1,2,4-oxadiazol-3-yl)-6a,7,9,10-tetrahydro-2′H,5H-spiro[1,4-oxazino[4,3-a][1,8]naphthyridine-6,5′-pyrimidine]-2′,4′,6′(1′H,3′H)-trione] | 10 µM |
| C[C@@H]1CN2c3ncc(-c4noc(-c5ccccc5)n4)cc3CC3(C(=O)NC(=O)NC3=O)[C@H]2[C@H](C)O1 (relative stereo) [Example 123, (6aS,7S,9R)-rel-7,9-Dimethyl-3-(5-phenyl-1,2,4-oxadiazol-3-yl)-6a,7,9,10-tetrahydro-2′H,5H-spiro[1,4-oxazino[4,3-a][1,8]naphthyridine-6,5′-pyrimidine]-2′,4′,6′(1′H,3′H)-trione] | 9 µM |
| CC1CC(C)C2N(C1)c1cnc(Br)cc1CC21C(=O)NC(=O)NC1=O (centres unmarked) [Example 2, 3-Bromo-7,9-Dimethyl-5,6a,7,8,9,10-hexahydro-1′H-spiro[pyrido[1,2-a][1,7]naphthyridine-6,5′-pyrimidine]-2′,4′,6′(3′H)-trione] | 9 µM |
| O=C1NC(=O)C2(Cc3ccnc(Cl)c3N3CCCCC32)C(=O)N1 (centres unmarked) [Example 4, 1-chloro-5,6a,7,8,9,10-Hexahydro-1′H-spiro[pyrido[1,2-a][1,7]naphthyridine-6,5′-pyrimidine]-2′,4′,6′(3′H)-trione] | > 100 µM |
| O=C1NC(=O)C2(Cc3c(F)cncc3N3CCCCC32)C(=O)N1 (centres unmarked) [Example 5, 4-Fluoro-5,6a,7,8,9,10-Hexahydro-1′H-spiro[pyrido[1,2-a][1,7]naphthyridine-6,5′-pyrimidine]-2′,4′,6′(3′H)-trione] | > 100 µM |
| CC1C[C@@H](C)[C@H]2N(C1)c1ncccc1CC21C(=O)NC(=O)NC1=O (stereo partly drawn) [Example 7, (6aR,7R)-7,9-Dimethyl-5,6a,7,8,9,10-hexahydro-1′H-spiro[pyrido[1,2-a][1,8]naphthyridine-6,5′-pyrimidine]-2′,4′,6′(3′H)-trione] | 3 µM |
| CC1C[C@@H](C)[C@H]2N(C1)c1ccc(Br)nc1CC21C(=O)NC(=O)NC1=O (stereo partly drawn) [Example 8, (6aR,7R)-3-Bromo-7,9-dimethyl-5,6a,7,8,9,10-hexahydro-1′H-spiro[pyrido[1,2-a][1,5]naphthyridine-6,5′-pyrimidine]-2′,4′,6′(3′H)-trione] | > 83 µM |
| O=C1NC(=O)C2(Cc3cc(Br)cnc3N3CCCCC32)C(=O)N1 (centres unmarked) [Example 10, 3-Bromo-5,6a,7,8,9,10-hexahydro-1′H-spiro[pyrido[1,2-a][1,8]naphthyridine-6,5′-pyrimidine]-2′,4′,6′(3′H)-trione] | > 83 µM |
| CC1C[C@@H](C)[C@H]2N(C1)c1ncc(Br)cc1CC21C(=O)NC(=O)NC1=O (stereo partly drawn) [Example 11, (6aR,7R)-3-Bromo-7,9-dimethyl-5,6a,7,8,9,10-hexahydro-1′H-spiro[pyrido[1,2-a][1,8]naphthyridine-6,5′-pyrimidine]-2′,4′,6′(3′H)-trione] | 30 µM |
| C[C@H]1C[C@@H](C)[C@H]2N(C1)c1c(ccnc1Cl)CC21C(=O)NC(=O)NC1=O [Example 13, (6aR,7R,9S)-1-chloro-7,9-dimethyl-5,6a,7,8,9,10-hexahydro-1′H-spiro[pyrido[1,2-a][1,7]naphthyridine-6,5′-pyrimidine]-2′,4′,6′(3′H)-trione] | 25 µM |
| Cc1nnc(-c2cc3c(nc2F)N2C[C@@H](C)C[C@@H](C)[C@@H]2C2(C3)C(=O)NC(=O)NC2=O)s1 [Example 17, (6aR,7R,9S)-2-Fluoro-7,9-dimethyl-3-(5-methyl-1,3,4-thiadiazol-2-yl)-5,6a,7,8,9,10-hexahydro-1′H-spiro[pyrido[1,2-a][1,8]naphthyridine-6,5′-pyrimidine]-2′,4′,6′(3′H)-trione] | 6 µM |
| C[C@H]1C[C@@H](C)[C@H]2N(C1)c1cnc(-c3ccn[nH]3)cc1CC21C(=O)NC(=O)NC1=O [Example 117, (6aR,7R,9S)-7,9-Dimethyl-3-(1H-pyrazol-5-yl)-5,6a,7,8,9,10-hexahydro-1′H-spiro[pyrido[1,2-a][1,7]naphthyridine-6,5′-pyrimidine]-2′,4′,6′(3′H)-trione] | 1 µM |

Same assay, conditions: E. coli DNA gyrase supercoiling; asterisk: no IC50 obtained at or below the indicated concentration; read-out: IC50

| Structure (SMILES) | IC50 |
| --- | --- |
| CC1CN2c3ncc(-c4nccs4)cc3CC3(C(=O)NC(=O)NC3=O)C2C(C)O1 [Example 25, (6aS,7S,9R)-rel-7,9-Dimethyl-3-(1,3-thiazol-2-yl)-6a., 7,9,10-tetrahydro-2′H,5H-spiro[1,4-oxazino[4,3-a][1,8]naphthyridine-6,5′-pyrimidine]-2′,4′,6′(1′H,3′H)-trione] | 9 µM |
| CC1CN2c3ncc(-c4ccnn4C)cc3CC3(C(=O)NC(=O)NC3=O)C2C(C)O1 [Example 41, (6aS,7S,9R)-rel-7,9-Dimethyl-3-(1-methyl-1H-pyrazol-5-yl)-6a., 7,9,10-tetrahydro-2′H,5H-spiro[1,4-oxazino[4,3-a][1,8]naphthyridine-6,5′-pyrimidine]-2′,4′,6′(1′H,3′H)-trione] | 5 µM |
| CC1CN2c3ncc(-c4cn[nH]c4)cc3CC3(C(=O)NC(=O)NC3=O)C2C(C)O1 [Example 44, (6aS,7S,9R)-rel-7,9-Dimethyl-3-(1H-pyrazol-4-yl)-6a., 7,9,10-tetrahydro-2′H,5H-spiro[1,4-oxazino[4,3-a][1,8]naphthyridine-6,5′-pyrimidine]-2′,4′,6′(1′H,3′H)-trione] | > 10 µM |
